Results from ChEMBL document CHEMBL5053510, “Discovery of AS-1763: A Potent, Selective, Noncovalent, and Orally Available Inhibitor of Bruton's Tyrosine Kinase” (J Med Chem, 2021).

Tests used:
[1] = Half life in mouse at 15 mg/kg, po; assay type: ADME, organism-based; details: in vivo
Cytochrome P450 1A2 = Cytochrome P450 1A2 (Homo sapiens, UniProt P05177); assay: Inhibition of CYP1A2 (unknown origin); assay type: ADME
[2] = Plasma protein binding in dog; assay type: ADME, cell-free, Canis lupus familiaris; details: read-out: PPB (converted)
[3] = Initial plasma concentration in rat at 2 mg/kg, iv; assay type: ADME, organism-based
[4] = AUC (0 to last) in mouse at 15 mg/kg, po; assay type: ADME, organism-based; parameters: time 0 - last, dose 15 mg/kg, route po; details: in vivo
OCI-Ly10 [5] = assay: Antiproliferative activity against human OCILY10 cells harboring BTK C481S mutant […] gene assessed as reduction in cell viability after 96 hrs; assay type: functional, cell-based; details: OCI-Ly10, 96 h
[6] = Half life in dog at 5 mg/kg, po; assay type: ADME, organism-based, Canis lupus familiaris; details: in vivo
[7] = MRT (0 to last) in rat at 15 mg/kg, po; assay type: ADME, organism-based; details: in vivo
[8] = Half life in rat at 2 mg/kg, iv; assay type: ADME, organism-based; details: in vivo
[9] = biological target: Tyrosine-protein kinase Tec (Homo sapiens) (UniProt P42680); assay: Inhibition of human TEC (359- 631) expressed in baculovirus expression system at 0.3 uM by mobility shift assay
OCI-Ly10 [10] = assay: Antitumor activity against human ibrutinib-resistant BTK[C481S] knock-in OCILY10 cells in SCID mouse assessed as tumor growth inhibition at 60 mg/kg, po bid measured after 63 days; assay type: functional; details: OCI-Ly10, 1512 h, time 63 day, read-out: TGI
Cytochrome P450 2D6 = Cytochrome P450 2D6 (Homo sapiens, UniProt P10635); assay: Inhibition of […] (unknown origin); assay type: ADME
[11] = Oral bioavailability in mouse at 15 mg/kg; assay type: ADME, organism-based; details: in vivo
[12] = Half life in dog at 1 mg/kg, iv; assay type: ADME, organism-based, Canis lupus familiaris; details: in vivo
[13] = Clearence in dog at 1 mg/kg, iv; assay type: ADME, organism-based, Canis lupus familiaris; details: in vivo
[14] = Tmax in mouse at 15 mg/kg, po; assay type: ADME, organism-based; details: in vivo
OCI-Ly10 [15] = assay: Antiproliferative activity against human OCILY10 cells assessed as reduction in cell proliferation measured after 96 hrs; assay type: functional, cell-based; details: OCI-Ly10, 96 h
[16] = biological target: Voltage-gated inwardly rectifying potassium channel KCNH2 (Homo sapiens, UniProt Q12809); assay: Inhibition of human ERG
[17] = Tmax in dog at 5 mg/kg, po; assay type: ADME, organism-based, Canis lupus familiaris; details: in vivo
Cytochrome P450 2C19 = Cytochrome P450 2C19 (Homo sapiens, UniProt P33261); assay: Inhibition of CYP2C19 (unknown origin); assay type: ADME
OCI-Ly10 [18] = assay: Antitumor activity against human OCILY10 cells xenografted in SCID mouse assessed as tumor growth inhibition at 20 mg/kg, po bid measured after 63 days; assay type: functional; details: OCI-Ly10, 1512 h, time 63 day, read-out: TGI
[19] = biological target: T1, Tyrosine-protein kinase BTK (Homo sapiens, UniProt Q06187); assay: Inhibition of human BTK-A using phosphorylated substrate in presence of ATP by microplate reader assay
[20] = AUC (0 to last) in rat at 2 mg/kg, iv; assay type: ADME, organism-based; parameters: time 0 - last, dose 2 mg/kg, route iv; details: in vivo
[21] = biological target: Tyrosine-protein kinase BTK (Homo sapiens, UniProt Q06187, C481S); assay: Inhibition of BTK C481S mutant (unknown origin) in presence of 1 mM ATP by microplate reader assay
[22] = Metabolic stability in human hepatocytes assessed as Intrinsic clearance; assay type: ADME, cell-based, Hepatocyte
[23] = MRT (0 to last) in dog at 1 mg/kg, iv; assay type: ADME, organism-based, Canis lupus familiaris; details: in vivo
[24] = biological target: Epithelial discoidin domain-containing receptor 1 (Homo sapiens, UniProt Q08345); assay: Inhibition of human DDR1 (444 - 876 residues) expressed in baculovirus expression system at 0.3 uM by mobility shift assay
[25] = biological target: Proto-oncogene tyrosine-protein kinase Src (Homo sapiens, UniProt P12931); assay: Inhibition of human full length SRC expressed in baculovirus expression system at 0.3 uM by mobility shift assay
[26] = Plasma protein binding in mouse; assay type: ADME, cell-free; details: read-out: PPB (converted)
Cytochrome P450 2C9 = Cytochrome P450 2C9 (Homo sapiens, UniProt P11712); assay: Inhibition of CYP2C9 (unknown origin); assay type: ADME
[27] = Metabolic stability in mouse hepatocytes assessed as Intrinsic clearance; assay type: ADME, cell-based, Hepatocyte
[28] = biological target: Tyrosine-protein kinase Tec (Homo sapiens, UniProt P42680); assay: Inhibition of human TEC (359 - 631 residues) expressed in baculovirus expression system by mobility shift assay
[29] = biological target: Muscle, skeletal receptor tyrosine-protein kinase (Homo sapiens, UniProt O15146); assay: Inhibition of human MUSK expressed in baculovirus expression system by mobility shift assay
Mus musculus = species: Mus musculus; assay: Toxicity in SCID mouse harboring human OCILY10 cells harboring BTK C481S mutant […] gene assessed as body weight loss; assay type: organism-based
[30] = Volume of distribution at steady state in mouse at 2 mg/kg, iv; assay type: ADME, organism-based; details: in vivo, read-out: Vdss
Cytochrome P450 2C8 = Cytochrome P450 2C8 (Homo sapiens, UniProt P10632); assay: Inhibition of CYP2C8 (unknown origin); assay type: ADME
[31] = Metabolic stability in rat hepatocytes assessed as Intrinsic clearance; assay type: ADME, cell-based, Hepatocyte
[32] = biological target: T1, Tyrosine-protein kinase BTK; assay: Inhibition of human full-length BTK (2 to 659 residues) expressed in baculovirus expression system at 0.3 uM by mobility shift assay
[33] = Metabolic stability in dog hepatocytes assessed as Intrinsic clearance; assay type: ADME, cell-based, Canis lupus familiaris, Hepatocyte
[34] = biological target: Cytoplasmic tyrosine-protein kinase BMX (Homo sapiens, UniProt P51813); assay: Inhibition of human full-length BMX (1 to 675 residues) expressed in baculovirus expression system by mobility shift assay
[35] = MRT (0 to last) in rat at 2 mg/kg, iv; assay type: ADME, organism-based; details: in vivo

T1 sequence (Q06187 whole entry): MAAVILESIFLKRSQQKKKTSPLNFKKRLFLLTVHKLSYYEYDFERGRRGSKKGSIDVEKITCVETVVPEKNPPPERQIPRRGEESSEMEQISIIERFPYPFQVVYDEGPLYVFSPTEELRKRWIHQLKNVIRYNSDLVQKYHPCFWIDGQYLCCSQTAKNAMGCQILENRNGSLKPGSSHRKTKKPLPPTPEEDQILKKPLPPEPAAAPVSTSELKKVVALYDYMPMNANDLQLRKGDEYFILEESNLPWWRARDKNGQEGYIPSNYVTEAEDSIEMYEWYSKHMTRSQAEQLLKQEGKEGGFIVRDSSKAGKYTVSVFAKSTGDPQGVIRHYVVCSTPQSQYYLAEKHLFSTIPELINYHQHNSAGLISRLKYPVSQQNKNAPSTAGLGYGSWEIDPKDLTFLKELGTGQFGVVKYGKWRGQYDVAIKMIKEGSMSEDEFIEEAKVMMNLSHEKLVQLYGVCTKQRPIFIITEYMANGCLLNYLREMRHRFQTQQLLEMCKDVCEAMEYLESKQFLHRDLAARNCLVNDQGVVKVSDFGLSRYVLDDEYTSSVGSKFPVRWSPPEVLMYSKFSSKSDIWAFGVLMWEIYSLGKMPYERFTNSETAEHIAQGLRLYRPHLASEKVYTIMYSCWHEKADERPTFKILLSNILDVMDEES
Cytochrome P450 2C9, sequence (P11712 whole entry): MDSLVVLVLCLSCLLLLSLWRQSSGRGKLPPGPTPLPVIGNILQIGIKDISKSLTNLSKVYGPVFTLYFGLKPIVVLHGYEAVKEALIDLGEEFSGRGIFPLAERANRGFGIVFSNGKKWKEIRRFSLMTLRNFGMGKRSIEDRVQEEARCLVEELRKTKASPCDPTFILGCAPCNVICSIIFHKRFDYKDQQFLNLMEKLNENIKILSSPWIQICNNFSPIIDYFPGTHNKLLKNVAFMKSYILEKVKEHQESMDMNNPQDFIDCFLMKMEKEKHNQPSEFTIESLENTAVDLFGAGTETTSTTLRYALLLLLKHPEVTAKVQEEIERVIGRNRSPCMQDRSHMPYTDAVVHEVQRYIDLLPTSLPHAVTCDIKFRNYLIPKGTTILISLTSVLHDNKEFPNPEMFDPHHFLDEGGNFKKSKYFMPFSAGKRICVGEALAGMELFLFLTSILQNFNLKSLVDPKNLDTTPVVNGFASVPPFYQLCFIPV
Tyrosine-protein kinase Tec (Homo sapiens), sequence (P42680 whole entry): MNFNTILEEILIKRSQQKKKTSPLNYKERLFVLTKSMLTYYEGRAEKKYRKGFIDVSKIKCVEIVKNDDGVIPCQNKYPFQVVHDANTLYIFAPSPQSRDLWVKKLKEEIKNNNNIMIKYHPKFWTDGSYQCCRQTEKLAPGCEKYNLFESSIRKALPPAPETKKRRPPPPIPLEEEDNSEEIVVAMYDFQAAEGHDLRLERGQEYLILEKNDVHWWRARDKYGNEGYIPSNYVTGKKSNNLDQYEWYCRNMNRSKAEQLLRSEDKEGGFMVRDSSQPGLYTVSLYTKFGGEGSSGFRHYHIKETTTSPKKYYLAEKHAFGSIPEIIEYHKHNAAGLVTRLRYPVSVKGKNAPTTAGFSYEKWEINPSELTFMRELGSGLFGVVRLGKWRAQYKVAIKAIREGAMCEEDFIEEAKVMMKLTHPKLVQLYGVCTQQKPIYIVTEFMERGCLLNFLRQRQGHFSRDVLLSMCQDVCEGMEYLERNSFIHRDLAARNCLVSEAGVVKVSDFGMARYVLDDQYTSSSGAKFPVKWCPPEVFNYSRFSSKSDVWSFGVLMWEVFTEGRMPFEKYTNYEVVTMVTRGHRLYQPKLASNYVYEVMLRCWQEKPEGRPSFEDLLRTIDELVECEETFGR
Tyrosine-protein kinase Tec, sequence (P42680 whole entry, the tested form may be a part): as the sequence (P42680 whole entry) above
Muscle, skeletal receptor tyrosine-protein kinase, sequence (O15146 whole entry): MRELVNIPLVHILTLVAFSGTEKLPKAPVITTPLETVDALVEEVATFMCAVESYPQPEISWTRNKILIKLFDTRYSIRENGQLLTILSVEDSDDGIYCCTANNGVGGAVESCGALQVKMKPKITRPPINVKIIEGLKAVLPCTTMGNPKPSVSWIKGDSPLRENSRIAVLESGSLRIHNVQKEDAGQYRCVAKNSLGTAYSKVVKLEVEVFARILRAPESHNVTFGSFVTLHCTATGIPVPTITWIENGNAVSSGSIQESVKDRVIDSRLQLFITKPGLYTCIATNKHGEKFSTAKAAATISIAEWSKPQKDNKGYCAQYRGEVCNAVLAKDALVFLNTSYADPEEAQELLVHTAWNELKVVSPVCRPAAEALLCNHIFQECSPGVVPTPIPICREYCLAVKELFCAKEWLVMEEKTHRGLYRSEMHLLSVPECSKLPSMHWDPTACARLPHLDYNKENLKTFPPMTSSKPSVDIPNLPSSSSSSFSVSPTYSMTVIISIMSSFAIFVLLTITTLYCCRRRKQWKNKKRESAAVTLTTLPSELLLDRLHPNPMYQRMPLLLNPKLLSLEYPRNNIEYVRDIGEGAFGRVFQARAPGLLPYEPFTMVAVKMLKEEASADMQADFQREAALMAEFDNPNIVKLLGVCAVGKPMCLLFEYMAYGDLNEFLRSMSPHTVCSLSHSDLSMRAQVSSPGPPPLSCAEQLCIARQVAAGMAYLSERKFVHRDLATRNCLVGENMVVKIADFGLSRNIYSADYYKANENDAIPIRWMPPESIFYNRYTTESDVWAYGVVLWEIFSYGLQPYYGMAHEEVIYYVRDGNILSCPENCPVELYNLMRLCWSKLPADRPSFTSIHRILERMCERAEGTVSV
Proto-oncogene tyrosine-protein kinase Src, sequence (P12931 2-536 limits assumed): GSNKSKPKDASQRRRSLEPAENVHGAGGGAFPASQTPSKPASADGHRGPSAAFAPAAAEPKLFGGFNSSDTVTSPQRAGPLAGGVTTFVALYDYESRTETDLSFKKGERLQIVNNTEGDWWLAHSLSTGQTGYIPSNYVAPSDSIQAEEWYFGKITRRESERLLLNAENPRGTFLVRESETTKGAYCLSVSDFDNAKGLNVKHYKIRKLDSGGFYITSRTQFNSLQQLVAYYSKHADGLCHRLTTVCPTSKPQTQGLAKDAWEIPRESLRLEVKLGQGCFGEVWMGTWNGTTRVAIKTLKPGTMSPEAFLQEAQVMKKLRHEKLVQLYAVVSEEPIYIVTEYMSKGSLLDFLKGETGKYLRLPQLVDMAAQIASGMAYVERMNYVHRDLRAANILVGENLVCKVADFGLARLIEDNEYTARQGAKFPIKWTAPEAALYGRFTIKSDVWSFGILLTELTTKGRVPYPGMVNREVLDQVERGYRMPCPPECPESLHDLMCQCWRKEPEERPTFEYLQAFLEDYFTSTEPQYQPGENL
Voltage-gated inwardly rectifying potassium channel KCNH2, sequence (Q12809 whole entry): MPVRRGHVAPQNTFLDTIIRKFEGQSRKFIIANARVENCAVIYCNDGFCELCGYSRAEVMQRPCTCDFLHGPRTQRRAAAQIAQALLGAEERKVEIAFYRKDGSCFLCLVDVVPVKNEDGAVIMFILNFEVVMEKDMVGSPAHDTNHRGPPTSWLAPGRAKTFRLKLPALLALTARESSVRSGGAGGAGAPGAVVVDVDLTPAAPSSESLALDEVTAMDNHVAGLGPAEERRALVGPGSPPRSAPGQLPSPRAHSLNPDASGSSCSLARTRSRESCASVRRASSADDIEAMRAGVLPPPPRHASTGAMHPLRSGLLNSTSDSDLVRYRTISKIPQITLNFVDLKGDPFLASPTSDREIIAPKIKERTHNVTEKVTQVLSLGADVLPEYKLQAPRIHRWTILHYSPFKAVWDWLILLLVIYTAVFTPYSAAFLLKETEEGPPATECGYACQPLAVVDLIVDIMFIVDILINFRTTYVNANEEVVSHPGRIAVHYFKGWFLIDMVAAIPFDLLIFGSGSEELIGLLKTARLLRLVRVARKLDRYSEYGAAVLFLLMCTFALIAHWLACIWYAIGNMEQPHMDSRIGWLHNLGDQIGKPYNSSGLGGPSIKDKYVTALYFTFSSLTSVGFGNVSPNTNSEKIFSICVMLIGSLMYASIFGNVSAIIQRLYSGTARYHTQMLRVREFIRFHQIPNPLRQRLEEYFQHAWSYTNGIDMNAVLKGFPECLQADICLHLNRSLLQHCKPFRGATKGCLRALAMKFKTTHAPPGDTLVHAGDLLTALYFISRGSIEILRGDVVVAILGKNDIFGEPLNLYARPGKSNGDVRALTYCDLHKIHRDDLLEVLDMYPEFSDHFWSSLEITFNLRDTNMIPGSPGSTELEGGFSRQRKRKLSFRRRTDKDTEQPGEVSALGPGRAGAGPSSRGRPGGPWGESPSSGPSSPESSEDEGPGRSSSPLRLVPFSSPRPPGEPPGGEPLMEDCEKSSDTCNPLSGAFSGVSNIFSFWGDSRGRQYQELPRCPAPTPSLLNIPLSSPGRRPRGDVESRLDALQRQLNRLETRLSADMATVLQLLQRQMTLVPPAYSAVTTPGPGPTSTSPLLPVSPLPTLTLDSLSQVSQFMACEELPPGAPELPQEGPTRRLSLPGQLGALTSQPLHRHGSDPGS
Tyrosine-protein kinase BTK (Homo sapiens, UniProt Q06187, C481S), sequence (Q06187 2-659 C481S limits assumed): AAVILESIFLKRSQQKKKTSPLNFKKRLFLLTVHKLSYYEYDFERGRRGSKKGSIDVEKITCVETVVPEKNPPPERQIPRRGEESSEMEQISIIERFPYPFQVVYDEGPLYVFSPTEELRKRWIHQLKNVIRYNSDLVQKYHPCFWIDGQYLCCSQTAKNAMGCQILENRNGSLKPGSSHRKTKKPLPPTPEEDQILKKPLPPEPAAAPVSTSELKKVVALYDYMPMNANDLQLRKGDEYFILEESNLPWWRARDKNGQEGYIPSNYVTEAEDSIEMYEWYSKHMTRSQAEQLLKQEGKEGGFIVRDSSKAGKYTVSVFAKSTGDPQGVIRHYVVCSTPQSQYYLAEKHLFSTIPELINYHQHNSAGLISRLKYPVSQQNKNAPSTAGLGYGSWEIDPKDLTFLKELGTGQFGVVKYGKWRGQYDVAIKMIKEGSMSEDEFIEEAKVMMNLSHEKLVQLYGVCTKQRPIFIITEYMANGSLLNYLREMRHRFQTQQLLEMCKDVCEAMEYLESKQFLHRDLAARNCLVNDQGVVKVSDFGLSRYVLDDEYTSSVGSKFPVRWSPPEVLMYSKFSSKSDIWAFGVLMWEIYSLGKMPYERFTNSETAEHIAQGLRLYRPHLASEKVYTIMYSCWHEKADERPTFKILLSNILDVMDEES

SMILES: Nc1nc(-c2cccc(-n3ccc4cc(C5CC5)cc(F)c4c3=O)c2CO)c2cc(C3=CCN(C4COC4)CC3)[nH]c2n1 [MILREBRUTINIB]
- half-life [1]: 2.25 h
- IC50 (Cytochrome P450 1A2): > 10000 nM
- fraction unbound [2]: 0.015
- C0 [3]: 874 ng/mL
- AUC(0-t) [4]: 8060 ng·h/mL
- IC50 (OCI-Ly10 [5]): 20.4 nM
- half-life [6]: 1.9 h
- MRT last [7]: 4.03 h
- half-life [8]: 2.65 h
- inhibition [9]: 99.6%
- inhibition in vivo at 60 mg/kg (OCI-Ly10 [10]): 73%
- IC50 (Cytochrome P450 2D6): > 10000 nM
- bioavailability [11]: 60.8%
- half-life [12]: 1.29 h
- clearance [13]: 22.7 mL/min/kg
- Tmax [14]: 2 h
- IC50 (OCI-Ly10 [15]): 2 nM
- IC50 [16]: 8540 nM
- Tmax [17]: 0.833 h
- IC50 (Cytochrome P450 2C19): > 10000 nM
- inhibition in vivo at 20 mg/kg (OCI-Ly10 [18]): 81.6%
- IC50 [19]: 0.85 nM
- AUC(0-t) [20]: 1650 ng·h/mL
- IC50 [21]: 5.88 nM
- CLH [22]: 0.76 mL/min/g
- MRT last [23]: 1.23 h
- inhibition [24]: 53.4%
- inhibition [25]: 51.9%
- fraction unbound [26]: 0.008
- IC50 (Cytochrome P450 2C9): 5380 nM
- CLH [27]: 2.11 mL/min/g
- IC50 [28]: 1.34 nM
- IC50 [29]: 306 nM
- Activity (Mus musculus): Non-Toxic
- Vd [30]: 1.61 L/kg
- IC50 (Cytochrome P450 2C8): 3170 nM
- CLH [31]: 2.04 mL/min/g
- inhibition [32]: 99.4%
- CLH [33]: 1.28 mL/min/g
- IC50 [34]: 8.49 nM
- MRT last [35]: 2.92 h
